Measured values: US20030039628A1, “Activation and protection of T-cells (CD4+ and CD8+) using an H2 receptor agonist and other T-cell activating agents” (priority 1998, published 2003)

What was measured:
[1] = test system: T-cells and NK-cells; assay: MO-induced cell death (apoptosis) of T-cells and NK-cells, flow cytometry; format: cell-based, human
Procedure: In this Example, apoptotic morphology of lymphocytes exposed to MO was monitored by staining cells with a dye mix containing acridine orange (10:g/ml; Sigma) and ethidium bromide (10:g/ml; Sigma), both prepared in phosphate buffered saline. One microliter (1:1) of dye mix was added to 25:1 of cells suspension (1-2×10^6/ml) in siliconized test tubes. Thereafter, 10:1 of the cell suspension was placed on a glass slide and immediately counted in a fluorescence microscope (Nikon) under times forty (×40) magnification with qualification of dead, living, apoptotic and non-apoptotic cells. (See Hellstrand, K., et al. J. Immunol., 153: 4940-4947 (1994); Hansson, M., et al., J. Immunol. 156:42-47 (1996)).
(See Hansson M., et al., supra). Cell death in lymphocytes was monitored by gating nonviable T-cells or NK-cells after exposure to MO, with and without histamine or catalase. A gate with reduced forward scatter and increased right angle scatter characteristic of apoptosis was employed in these studies. (See Hansson M., et al., supra; Mizgerd J. P., et al., J. Leukoc. Biol. 59:189 (1996); herein incorporated by reference; gate also described in Example 1).

[2] = test system: CD69 expression on T-cells; assay: CD69 expression on T-cells incubated with or without autologous monocytes (MO), flow cytometry; format: cell-based, human
Procedure: To study the activation characteristics of T-cells in the presence and absence of MO, T-cell activation compounds, H2-receptor agonists, and H2O2 scavengers, peripheral venous blood was obtained as freshly prepared leukopacks from healthy blood donors at the Blood Centre, Sahlgren's Hospital, Göteborg, Sweden. The blood (65 ml) was mixed with 92.5 ml Iscove's medium, 35 ml 6% Dextran (Kabi Pharmacia, Stockholm, Sweden) and 7.5 ml acid citrate dextrose (ACD) (Baxter, Deerfield, Ill.). After incubation for 15 minutes at room temperature, the supernatant was carefully layered onto Ficoll-Hypaque (Lymphoprep, Myegaard, Norway). Mononuclear cells (MNC) were collected at the interface after centrifugation at 380 g for 15 minutes at room temperature, washed twice in PBS and resuspended in Iscove's medium supplemented with 10% human AB^+ serum. During all further separation of cells, the cell suspensions were kept in siliconized test tubes (Vacuette, Greiner, Stockholm).
The MNC were further separated into lymphocyte and monocyte (MO) populations using the counter-current centrifugal elutriation (CCE) technique originally described by Yasaka and co-workers (Yasaka, T. et al., J. Immunol., 127:1515) with modifications as described in Hansson, M., et al. (J. Immunol., 156: 42 (1996); hereby incorporated by reference). Briefly, the MNC were resuspended in elutration buffer containing 0.05% BSA and 0.015% EDTA in buffered NaCl and fed into a Beckman J2-21 ultracentrifuge with a JE-6B rotor at 2100 rpm. A fraction with >90% MO was obtained at a flow rate of 18 ml/min. A lymphocyte fraction enriched for NK-cells (CD3^−/56^+ phenotype) and T-cells (CD3^+/56^−) was recovered at flow rates of 14-15 ml/min. […] In some experiments, dynabeads (Dynal A/S, Oslo, Norway) coated with anti-CD56 were used to obtain purified lymphocyte preparations of T-cells, as described in detail by Hansson, M., et al., incorporated above.
Flow cytometry was used in the experiments described below to identify the various sub-populations of T-cells. Flow cytometry permits an investigator to examine a population of cells using a number of labeled probes to differentiate sub-populations within the larger whole. In these experiments, the CD3 marker was used to identify the subpopulation of T-cells and the CD4 and CD8 markers were used to further identify the subpopulation of T-cells into T helper cells and CTLs. The effects of MO exposure in the presence and absence of histamine and T-cell activation compounds were determined using the CD69 T-cell activation marker. The expression of the different markers was estimated in a lymphocyte gate using flow cytometry (as described in Hellstrand, K., et al. Cell. Immunol. 138: 44-54 (1991), and hereby incorporated by reference).
The following protocol was used in experiments reporting the detection of surface antigens of cell populations. One million cells were incubated with appropriate fluorescein isothiocynate (FITC) and phycoerythrin (PE) conjugated monoclonal antibodies (Becton & Dickinson, Stockholm, Sweden; 1:1/10^6 cells), on ice for 30 minutes. The cells were washed twice in PBS and resuspended in 500:1 sterile filtered PBS and analyzed by use of flow cytometry on a FACSort with a Lysys II software program (Becton & Dickenson). Lymphocytes were gated on the basis of forward and right angle scatter. The flow rate was adjusted to <200 cells×s^− and at least 5×10^3 cells were analyzed for each sample, if not otherwise stated.
Isolated peripheral blood lymphocytes (150,000 cells/well in a total volume of 0.2 ml) were incubated in microplates for 16 hours at 37° C. in the presence or absence of autologous MO.

[3] = biological target: H2 receptor (Homo sapiens, UniProt P25021); settings: cited from earlier work
H2 receptor, sequence (P25021 whole entry): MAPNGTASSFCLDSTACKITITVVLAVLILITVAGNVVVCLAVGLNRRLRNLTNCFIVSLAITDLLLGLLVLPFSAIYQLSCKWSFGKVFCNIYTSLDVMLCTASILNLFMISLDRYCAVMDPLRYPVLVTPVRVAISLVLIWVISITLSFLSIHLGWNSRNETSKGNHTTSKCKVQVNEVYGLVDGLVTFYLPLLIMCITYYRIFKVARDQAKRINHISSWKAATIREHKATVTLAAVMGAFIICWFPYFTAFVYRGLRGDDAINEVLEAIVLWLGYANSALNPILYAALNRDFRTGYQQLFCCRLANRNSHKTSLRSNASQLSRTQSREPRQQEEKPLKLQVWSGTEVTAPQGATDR

[4] = test system: CD3e+ T-cells and CD56+ NK-cells; settings: cited from earlier work
[5] = test system: NK cells; settings: cited from earlier work
[6] = test system: herpes simplex virus (HSV); settings: single dose of histamine; cited from earlier work
[7] = test system: NK cells; settings: absence of monocytes; cited from earlier work
[8] = test system: T-cell enriched lymphocytes; format: cell-based, human
[9] = test system: lymphocytes; settings: cited from earlier work

Compound: CNC(=C[N+](=O)[O-])NCCOCc1ccc(CN(C)C)o1 [AH20399AA]
- reversal of the histamine effect on MO-induced cell death ([1]; concentrations equimolar to 10-fold lower than histamine): not
- antagonism of the histamine response on cytokine-induced CD69 expression ([2]; equimolar or 10-fold lower concentrations than histamine): did not block
- reduction of affinity for the H2 receptor relative to ranitidine [3]: > 50 fold

Compound: catalase
- mimicking of the histamine effect on MO-induced cell death [1]: mimicked
- effect on induction of CD69 in the absence of MO ([2]; absence of MO): did not affect
- effect on MO-induced inhibition of cytokine-induced CD69 expression ([2]; catalase 10-200 U/ml, IL-2 100 U/ml, with MO): significantly reversed
- effect of catalase alone on percentage of CD3+ cells expressing CD69 ([2]; catalase alone, 0 to 200 U/ml, with MO): little effect
- percentage of CD3+ cells expressing the CD69 marker ([2]; with MO, IL-2 100 U/ml, catalase 200 U/ml): ~11%

Compound: IFN-α
- effect of concomitant treatment on MO-induced cell death and on histamine protection ([1]; 100 U/ml): unaffected
- change of IFN-α-induced CD69 in CD3e+ cells by the addition of MO ([2]; IFN-α, with vs. without MO): seemingly unchanged
- induction of CD69 in CD3e+ cells ([2]; in response to IFN-α (100 U/ml)): ~10%
- induction of CD69 in CD4+ cells compared with IL-2 ([2]; incubated without MO, p<0.01): less effective than IL-2
- IFN-α induced level of CD69 on CD4+ cells when MO were added ([2]; with vs. without MO, p<0.05): significantly higher

Compound: OO [hydrogen peroxide]
- concentration required to induce apoptosis in CD3e+ T-cells relative to CD56+ NK-cells [4]: Approximately 5 fold

Compound: CN(C)CCCSC(=N)N [dimaprit]
- action on histamine's effect on granulocyte mediated suppression of NK cell antibody dependent cytotoxicity [5]: mimicked

Compound: NCCc1c[nH]cn1 [histamine]
- survival time of HSV-inoculated animals [6]: prolong survival time
- effect on NK mediated cytotoxicity [7]: no effect or weakly suppressed
- prevention of MO-induced cell death ([1]; all subsets of T-cells and NK-cells, histamine 50 :M, 16 hours): > 80%
- effect on CD69 expression in CD3+ and CD4+ T-cells incubated with IFN-α ([2]; MO present vs. absence of MO): enhanced the expression of CD69 to a significantly higher level
- effect on MO-induced inhibition of IL-2 induced acquisition of CD69 in T-cells ([2]; histamine 50 :M, IL-2 100 U/ml, with MO): counteracted
- effect on CD69 expression in non-stimulated or cytokine-activated T-cells ([2]; histamine 50 :M, incubated without MO): did not significantly alter
- effect on CD69 expression in CD8+ cells activated with IFN-α ([2]; with MO): restored by histamine to the level observed in pure lymphocytes
- ED50 of effect on cytokine-induced expression of CD69 in T-cells ([2]; with MO, histamine 0.1-50:M, dose-dependent): approximately 2 :M
- effect on vaccine-induced proliferation [8]: strongly potentiated
- proliferation of cells not treated with the vaccine [8]: slightly augmented
- effect on lymphocyte proliferation in response to phytohemagglutinin or staphylococcal enterotoxin type A [9]: reduce the proliferation

Compound: CNC(=C[N+](=O)[O-])NCCSCc1ccc(CN(C)C)o1 [ranitidine]
- action on histamine's effect on granulocyte mediated suppression of NK cell antibody dependent cytotoxicity [5]: blocked
